In patent US20240116875A1, “RATIONAL DESIGN, OPTIMIZATION, AND BIOLOGICAL EVALUATION OF NOVEL MEK4 INHIBITORS AGAINST PANCREATIC ADENOCARCINOMA” (NORTHWESTERN UNIVERSITY, priority 2022, published 2024):
pIC50: −log10 of the molar value. Where “and” joins values, the source holds several entries; their conditions need not be identical. Equal values may be shown once. Entries after “also recorded” stand apart in the source; their conditions may differ. Read-outs that look alike come from different tables or passages of the source.

Key:
MEK7 = target: T1, MEK7 (Homo sapiens, UniProt O14733); assay: ADP-Glo kinase activity assay, MEK7; format: biochemical
T1 construct: purchased Carna Biosciences
T1 sequence (O14733 1-419): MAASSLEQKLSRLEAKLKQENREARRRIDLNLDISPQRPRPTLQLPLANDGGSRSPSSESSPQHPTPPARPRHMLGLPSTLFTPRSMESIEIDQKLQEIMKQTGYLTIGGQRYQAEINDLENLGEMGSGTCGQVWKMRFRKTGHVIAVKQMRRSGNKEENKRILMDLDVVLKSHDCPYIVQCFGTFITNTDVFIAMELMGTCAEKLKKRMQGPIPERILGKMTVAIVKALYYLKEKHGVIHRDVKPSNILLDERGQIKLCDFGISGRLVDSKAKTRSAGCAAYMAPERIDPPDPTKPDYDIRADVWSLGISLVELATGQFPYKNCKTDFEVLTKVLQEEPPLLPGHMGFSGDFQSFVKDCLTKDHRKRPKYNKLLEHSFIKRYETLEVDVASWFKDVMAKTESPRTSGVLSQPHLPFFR
Procedure: The compounds were then evaluated both in vitro and in a cellular system. When studying kinase inhibitors, there are a multitude of ways to evaluate selectivity across kinases.
Procedure for a 5 μL Kinase reaction using the ADP-Glo Kinase Assay Kit from Promega. Staurosporine was used as the positive control, and DMSO as the negative control. Activity of recombinant active full-length human MEK4 (Carna Biosciences) was measured using the ADP-Glo assay with recombinant full-length human p38α (MAPK14). Kinase reactions with MEK7 (Carna Biosciences) were done at the same concentration and amounts with recombinant full-length human p38α (MAPK14).
For each well, 4 ng of MEK4 and 600 ng of p38α in Kinase buffer (CST) were used, and 1 μL of this mixture was dispensed per well.
Inhibitor was prepared in a DMSO solution. A dose response dilution was done in a 384-well Echo transfer plate. […] This mixture was allowed to incubate for 30 minutes at room temperature.
Using a Mantis, 1 μL, of an 8 μM ATP solution was added to each well, and the plate was allowed to incubate for another 1 hour at room temperature. […] All experiments were done in triplicate on the plate, and at least in one separate technical duplicate.

BRAF = target: T2, BRAF (Homo sapiens, UniProt P15056); assay: scanEDGE DiscoverX kinome-wide scan, BRAF; format: binding; settings: 10 μM
T2 construct: purchased Eurofins DiscoverX scanEDGE
Source text: To compare our compounds to the rest of the MEK inhibitors discovered thus far, we turned to the DiscoverX platform (KINOMEscan®, Eurofins DiscoverX), a widely used assay for comparing selectivity across the kinome. The DiscoverX platform reports the thermodynamic Kd in order to facilitate direct comparison of inhibitor affinity across the kinome, independent of ATP concentration.

[1] = Log D study (BioDuro-Sundia); settings: pH of 7.4
[2] = PAMPA assay (BioDuro-Sundia); format: in vitro ADME
Caco-2 = Caco-2 permeability assay; format: in vitro ADME
[3] = tested on: JNK phosphorylation in HEK293T cells; assay: anisomycin-induced JNK phosphorylation, western blotting, HEK293T; format: cell-based, human; settings: anisomycin 45 minutes then compound 5 hours, increasing doses
Procedure: The blots are representative of at least three biological replicates.
(§1) We also examined the effects of these inhibitors on JNK phosphorylation and proliferation of two pancreatic cancer cell lines (CD18 and MiaPaCa2).
(§2) Human pancreatic cancer cell lines (CD18/HPAF-II and MiaPaCa2) and HEK293T cells were obtained from American Type Culture Collection. All cell lines were cultured according to the manufacturer's protocol. All media contained 10% Fetal Bovine Serum (FBS) and antibiotics (100 U/mL Penicillin and 100 μg/mL Streptomycin).
(§3) Whole cell extracts of cultured cells were prepared in radioimmunoprecipitation (RIPA) lysis buffer supplemented with phosphatase and protease inhibitors (Calbiochem). Protein concentration was determined by the bicinchoninic acid assay (BCA) (ThermoFisher) and separated by the SDS-PAGE technique. […] Secondary anti-mouse IgG (A4416) and anti-rabbit IgG (A6667) antibodies were purchased from Sigma-Aldrich and used a 1:4000 dilution. Images of blots were acquired on HyBlot ES Autoradiography Film (Thomas Scientific, Swedesboro, NJ, USA) following incubation with SuperSignal West Pico PLUS (ThermoFisher).

CD18 cells = assay: cell proliferation (cell count after 72 hours), CD18; format: cell-based, human; settings: CD18, 72 hours, varying doses, single agent
Procedure: (§4) After 72 hours, cells were trypsinized, counted, and the cell numbers were normalized against the DMSO treatment. Mean±SD. Graphs are representative of 3 biological replicates.
as §4
(§5) Cell numbers from different treatments were normalized against the DMSO treatment, and CDI is calculated as follows: CDI=AB/(A×B), with AB being the ratio of the combination groups to control group and A or B being the ratio of the single agent group to the DMSO group. Mean±SEM from 3 biological replicates.
as §1, §2

MiaPaCa2 cells = assay: cell proliferation (cell count after 72 hours), MiaPaCa2; format: cell-based, human; settings: MiaPaCa2, 72 hours, varying doses, single agent
Procedure: as §4, §4, §5, §1, §2

[4] = tested on: MEK7 expression in HEK293T cells; assay: MEK7 expression, western blotting, HEK293T; format: cell-based, human; settings: anisomycin pretreatment, compound 100 μM, 5 hours
Procedure: HSP90 was used as loading control. The blots are representative of at least three biological replicates.
We next evaluated the effects of our inhibitors on the phosphorylation activity and expression of MEK1/2, MEK3/6, and MEK7. […] We also evaluated the effects on p42/44 MAPK (ERK1/2), which functions downstream of MEK1/2.
as §3

[5] = tested on: phospho-p42/44 MAPK in CD18 cells; assay: p42/44 MAPK phosphorylation, western blotting, CD18; format: cell-based, human; settings: CD18, MEK4 inhibitor 10 μM, 5 hours
Procedure: (§6) The effects of different treatments on phospho-p42/44 MAPK and total p42/44 MAPK expression levels were determined by western blotting. HSP90 was used as loading control. The blots are representative of at least three biological replicates.
as §3

[6] = tested on: phospho-p42/44 MAPK in MiaPaCa2 cells; assay: p42/44 MAPK phosphorylation, western blotting, MiaPaCa2; format: cell-based, human; settings: MiaPaCa2, MEK4 inhibitor 10 μM, 5 hours
Procedure: as §6, §3

CYP 1A2 = CYP 1A2 (Homo sapiens, UniProt P05177)
CYP 2D6 = CYP 2D6 (Homo sapiens, UniProt P10635); assay: CYP inhibition, 2D6
CYP 2C19 = CYP 2C19 (Homo sapiens, UniProt P33261); assay: CYP inhibition, 2C19
CYP isoforms 3A4/5 = assay: CYP inhibition, 3A4/5

Sequence of CYP 1A2 (P05177 whole entry): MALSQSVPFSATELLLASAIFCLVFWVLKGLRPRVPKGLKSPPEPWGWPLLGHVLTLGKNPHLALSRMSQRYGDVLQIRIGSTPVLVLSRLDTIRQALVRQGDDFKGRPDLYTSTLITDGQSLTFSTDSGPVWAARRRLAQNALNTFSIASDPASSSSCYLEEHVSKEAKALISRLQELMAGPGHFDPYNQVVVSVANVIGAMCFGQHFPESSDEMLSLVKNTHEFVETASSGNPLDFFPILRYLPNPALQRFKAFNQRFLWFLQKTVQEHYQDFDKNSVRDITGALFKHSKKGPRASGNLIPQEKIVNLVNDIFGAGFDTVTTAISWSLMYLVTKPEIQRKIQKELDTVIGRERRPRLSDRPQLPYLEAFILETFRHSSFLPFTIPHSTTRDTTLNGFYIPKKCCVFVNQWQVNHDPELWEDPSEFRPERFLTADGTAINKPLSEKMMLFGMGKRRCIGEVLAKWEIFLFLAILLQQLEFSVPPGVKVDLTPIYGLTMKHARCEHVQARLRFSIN
Sequence of CYP 2D6 (P10635 whole entry): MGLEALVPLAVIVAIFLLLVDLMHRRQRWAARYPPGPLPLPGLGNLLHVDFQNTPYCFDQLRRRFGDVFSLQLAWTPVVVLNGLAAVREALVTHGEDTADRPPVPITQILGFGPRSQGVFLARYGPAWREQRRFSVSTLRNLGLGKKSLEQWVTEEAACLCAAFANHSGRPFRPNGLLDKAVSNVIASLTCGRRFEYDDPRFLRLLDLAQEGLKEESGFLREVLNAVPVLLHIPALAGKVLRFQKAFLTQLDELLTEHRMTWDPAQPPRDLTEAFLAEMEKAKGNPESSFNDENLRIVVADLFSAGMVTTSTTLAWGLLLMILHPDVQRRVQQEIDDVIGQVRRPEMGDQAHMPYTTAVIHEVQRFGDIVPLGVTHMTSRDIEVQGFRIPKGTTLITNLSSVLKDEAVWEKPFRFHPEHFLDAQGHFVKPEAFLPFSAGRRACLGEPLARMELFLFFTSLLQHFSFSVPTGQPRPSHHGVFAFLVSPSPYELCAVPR
T2 sequence (P15056 whole entry): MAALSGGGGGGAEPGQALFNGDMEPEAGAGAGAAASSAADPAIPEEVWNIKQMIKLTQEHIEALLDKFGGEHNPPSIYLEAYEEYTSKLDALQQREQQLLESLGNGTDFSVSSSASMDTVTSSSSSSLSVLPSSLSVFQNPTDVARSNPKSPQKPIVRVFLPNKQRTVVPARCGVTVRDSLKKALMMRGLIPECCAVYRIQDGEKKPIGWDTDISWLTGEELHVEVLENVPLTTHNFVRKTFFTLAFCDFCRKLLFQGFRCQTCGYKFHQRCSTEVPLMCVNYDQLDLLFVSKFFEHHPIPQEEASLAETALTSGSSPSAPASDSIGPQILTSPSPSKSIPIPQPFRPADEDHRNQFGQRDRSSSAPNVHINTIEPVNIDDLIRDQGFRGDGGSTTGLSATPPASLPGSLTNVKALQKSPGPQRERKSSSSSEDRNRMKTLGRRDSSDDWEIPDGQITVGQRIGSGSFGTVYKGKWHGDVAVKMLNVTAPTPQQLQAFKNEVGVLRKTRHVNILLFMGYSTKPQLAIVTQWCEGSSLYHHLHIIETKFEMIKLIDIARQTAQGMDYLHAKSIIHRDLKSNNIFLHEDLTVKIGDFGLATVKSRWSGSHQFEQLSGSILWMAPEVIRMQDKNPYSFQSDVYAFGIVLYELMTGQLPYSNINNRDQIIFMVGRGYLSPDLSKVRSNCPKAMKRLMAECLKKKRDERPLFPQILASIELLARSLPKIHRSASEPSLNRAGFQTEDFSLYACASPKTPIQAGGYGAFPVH
Sequence of CYP 2C19 (P33261 whole entry, canonical isoform): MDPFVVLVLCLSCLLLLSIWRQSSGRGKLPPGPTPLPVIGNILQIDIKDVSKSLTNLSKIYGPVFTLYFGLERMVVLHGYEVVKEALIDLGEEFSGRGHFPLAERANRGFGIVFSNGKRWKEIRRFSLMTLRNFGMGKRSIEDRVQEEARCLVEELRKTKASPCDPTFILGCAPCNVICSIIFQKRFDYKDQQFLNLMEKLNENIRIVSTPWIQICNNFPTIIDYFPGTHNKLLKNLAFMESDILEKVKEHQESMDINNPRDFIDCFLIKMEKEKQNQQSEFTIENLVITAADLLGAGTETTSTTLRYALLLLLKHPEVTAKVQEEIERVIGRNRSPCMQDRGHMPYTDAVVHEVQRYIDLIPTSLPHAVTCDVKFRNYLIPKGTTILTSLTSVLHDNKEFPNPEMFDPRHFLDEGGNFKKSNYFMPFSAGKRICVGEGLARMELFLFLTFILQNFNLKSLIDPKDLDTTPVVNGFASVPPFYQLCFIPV

NC(=O)c1ccc(NS(=O)(=O)c2cccc(-c3n[nH]c4cc(F)ccc34)c2)cc1 [Compound 15o, 4-((3-(6-fluoro-1H-indazol-3-yl)phenyl)sulfonamido)benzamide]
pIC50 (MEK7; headline value per compound, read-out: MEK7 IC50): 7.02 | pIC50 (MEK7; individual experiment, values in brackets, n=3, read-out: MEK7 IC50 of each experiment (IC50±SEM)): 7.39 and 6.82 | inhibition of BRAF (BRAF): did not inhibit | log D [1]: 3.22 | permeability in the PAMPA assay [2]: low permeability | Caco-2 permeability (Caco-2): medium to high permeability | Pgp substrate (Caco-2; Caco-2 permeability assay): likely to be a Pgp substrate | effect on anisomycin-induced JNK phosphorylation [3]: attenuated anisomycin-induced INK phosphorylation in a dose-dependent manner | cell proliferation (CD18 cells): decreased proliferation; also recorded: antiproliferative properties | cell proliferation (MiaPaCa2 cells): decreased proliferation; also recorded: antiproliferative properties | effect on the expression of MEK7 [4]: no effect | effect on p42/44 MAPK phosphorylation [5]: increased p42/44 MAPK phosphorylation | effect on p42/44 MAPK phosphorylation [6]: did not induce p42/44 MAPK phosphorylation | inhibition of CYP 1A2 (CYP 1A2): inhibited | inhibition of CYP 2D6 (CYP 2D6): low inhibition | inhibition of CYP 2C19 (CYP 2C19): inhibited | inhibition of CYP isoforms 3A4/5 (CYP isoforms 3A4/5): did not inhibit
